# Results: PubChem BioAssay (NCI)
#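 48-hour exposure; five concentrations; linearly interpolated endpoints. Definition used: TGI = concentration required for complete inhibition of growth.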
# Experiments:
# Assay in all cases: inhibition of tumour cell growth, NCI panel, 48 h
# KM12 colon = system: KM12 colon
# OVCAR-5 ovarian = system: OVCAR-5 ovarian
# SK-OV-3 ovarian = system: SK-OV-3 ovarian
# RPMI-8226 leukemia = system: RPMI-8226 leukemia
# SR leukemia = system: SR leukemia
# MOLT-4 leukemia = system: MOLT-4 leukemia
# SK-MEL-5 melanoma = system: SK-MEL-5 melanoma
# SF-268 CNS = system: SF-268 CNS
# SN12C renal = system: SN12C renal
# HCT-15 colon = system: HCT-15 colon
# TK-10 renal = system: TK-10 renal
# T-47D breast = system: T-47D breast
# MDA-MB-231 breast = system: MDA-MB-231 breast
# A549 NSCLC = system: A549 NSCLC
# UO-31 renal = system: UO-31 renal
# HS 578T breast = system: HS 578T breast
# SNB-75 CNS = system: SNB-75 CNS
# ACHN renal = system: ACHN renal
# SW-620 colon = system: SW-620 colon
# M14 melanoma = system: M14 melanoma
# EKVX NSCLC = system: EKVX NSCLC
# UACC-257 melanoma = system: UACC-257 melanoma
# HCC-2998 colon = system: HCC-2998 colon
# BT-549 breast = system: BT-549 breast
# HL-60(TB) leukemia = system: HL-60(TB) leukemia
# COLO 205 colon = system: COLO 205 colon
# OVCAR-4 ovarian = system: OVCAR-4 ovarian
# SK-MEL-28 melanoma = system: SK-MEL-28 melanoma
# UACC-62 melanoma = system: UACC-62 melanoma
# HCT-116 colon = system: HCT-116 colon
# MDA-N = system: MDA-N
# NCI-H522 lung = system: NCI-H522 lung
# OVCAR-8 ovarian = system: OVCAR-8 ovarian
# 786-0 renal = system: 786-0 renal
# NCI-H226 lung = system: NCI-H226 lung
# HOP-62 NSCLC = system: HOP-62 NSCLC
# PC-3 prostate = system: PC-3 prostate
# MDA-MB-435 = system: MDA-MB-435
# HOP-92 NSCLC = system: HOP-92 NSCLC
# CCRF-CEM leukemia = system: CCRF-CEM leukemia
# RXF 393 renal = system: RXF 393 renal
# DU-145 prostate = system: DU-145 prostate
# U251 CNS = system: U251 CNS
# SK-MEL-2 melanoma = system: SK-MEL-2 melanoma
# CAKI-1 renal = system: CAKI-1 renal
# IGROV1 ovarian = system: IGROV1 ovarian
# NCI-H460 lung = system: NCI-H460 lung
# SNB-19 CNS = system: SNB-19 CNS
# SF-295 CNS = system: SF-295 CNS
# NCI-H23 lung = system: NCI-H23 lung
# OVCAR-3 ovarian = system: OVCAR-3 ovarian
# MALME-3M melanoma = system: MALME-3M melanoma
# LOX IMVI melanoma = system: LOX IMVI melanoma
# K-562 leukemia = system: K-562 leukemia
# HT29 colon = system: HT29 colon
# A498 renal = system: A498 renal
# NCI/ADR-RES ovarian = system: NCI/ADR-RES ovarian
# MCF7 breast = system: MCF7 breast
# SF-539 CNS = system: SF-539 CNS
compound,measurement,setting,value
O=C(O)c1nn(-c2ccc(Cl)cc2)c2c1C(=O)c1ccccc1C2=O,TGI,KM12 colon,> 100 µM
same,TGI,OVCAR-5 ovarian,> 100 µM
same,TGI,SK-OV-3 ovarian,> 100 µM
same,TGI,RPMI-8226 leukemia,> 100 µM
same,TGI,SR leukemia,78.7 µM
same,TGI,MOLT-4 leukemia,88 µM
same,TGI,SK-MEL-5 melanoma,53.6 µM
same,TGI,SF-268 CNS,> 100 µM
same,TGI,SN12C renal,> 100 µM
same,TGI,HCT-15 colon,> 100 µM
same,TGI,TK-10 renal,> 100 µM
same,TGI,T-47D breast,> 100 µM
same,TGI,MDA-MB-231 breast,> 100 µM
same,TGI,A549 NSCLC,> 100 µM
same,TGI,UO-31 renal,> 100 µM
same,TGI,HS 578T breast,> 100 µM
same,TGI,SNB-75 CNS,62.3 µM
same,TGI,ACHN renal,> 100 µM
same,TGI,SW-620 colon,> 100 µM
same,TGI,M14 melanoma,63.9 µM
same,TGI,EKVX NSCLC,> 100 µM
same,TGI,UACC-257 melanoma,> 100 µM
same,TGI,HCC-2998 colon,> 100 µM
same,TGI,BT-549 breast,> 100 µM
same,TGI,HL-60(TB) leukemia,> 100 µM
same,TGI,COLO 205 colon,> 100 µM
same,TGI,OVCAR-4 ovarian,> 100 µM
same,TGI,SK-MEL-28 melanoma,> 100 µM
same,TGI,UACC-62 melanoma,> 100 µM
same,TGI,HCT-116 colon,> 100 µM
same,TGI,MDA-N,> 100 µM
same,TGI,NCI-H522 lung,> 100 µM
same,TGI,OVCAR-8 ovarian,> 100 µM
same,TGI,786-0 renal,> 100 µM
same,TGI,NCI-H226 lung,> 100 µM
same,TGI,HOP-62 NSCLC,> 100 µM
same,TGI,PC-3 prostate,> 100 µM
same,TGI,MDA-MB-435,> 100 µM
same,TGI,HOP-92 NSCLC,> 100 µM
same,TGI,CCRF-CEM leukemia,> 100 µM
same,TGI,RXF 393 renal,> 100 µM
same,TGI,DU-145 prostate,> 100 µM
same,TGI,U251 CNS,> 100 µM
same,TGI,SK-MEL-2 melanoma,> 100 µM
same,TGI,CAKI-1 renal,> 100 µM
same,TGI,IGROV1 ovarian,> 100 µM
same,TGI,NCI-H460 lung,> 100 µM
same,TGI,SNB-19 CNS,> 100 µM
same,TGI,SF-295 CNS,> 100 µM
same,TGI,NCI-H23 lung,> 100 µM
same,TGI,OVCAR-3 ovarian,> 100 µM
same,TGI,MALME-3M melanoma,28.1 µM
same,TGI,LOX IMVI melanoma,> 100 µM
same,TGI,K-562 leukemia,> 100 µM
same,TGI,HT29 colon,> 100 µM
same,TGI,A498 renal,> 100 µM
same,TGI,NCI/ADR-RES ovarian,> 100 µM
same,TGI,MCF7 breast,> 100 µM
same,TGI,SF-539 CNS,67.4 µM
COc1ccc2nc(N/N=C/c3ccc(C)s3)cc(C)c2c1,TGI,KM12 colon,39.8 µM
same,TGI,OVCAR-5 ovarian,32.6 µM
same,TGI,SK-OV-3 ovarian,45 µM
same,TGI,RPMI-8226 leukemia,37.3 µM
same,TGI,SR leukemia,61 µM
same,TGI,MOLT-4 leukemia,35.5 µM
same,TGI,SK-MEL-5 melanoma,30.5 µM
same,TGI,SF-268 CNS,54.7 µM
same,TGI,SN12C renal,38.3 µM
same,TGI,HCT-15 colon,32.4 µM
same,TGI,TK-10 renal,> 100 µM
same,TGI,T-47D breast,46.4 µM
same,TGI,MDA-MB-231 breast,43.9 µM
same,TGI,A549 NSCLC,> 100 µM
same,TGI,UO-31 renal,36.5 µM
same,TGI,HS 578T breast,55.2 µM
same,TGI,SNB-75 CNS,46.4 µM
same,TGI,ACHN renal,37.8 µM
same,TGI,SW-620 colon,> 100 µM
same,TGI,M14 melanoma,37.7 µM
same,TGI,EKVX NSCLC,87.9 µM
same,TGI,UACC-257 melanoma,39.4 µM
same,TGI,HCC-2998 colon,33.5 µM
same,TGI,BT-549 breast,29.6 µM
same,TGI,HL-60(TB) leukemia,> 100 µM
same,TGI,COLO 205 colon,38.5 µM
same,TGI,OVCAR-4 ovarian,48.7 µM
same,TGI,SK-MEL-28 melanoma,> 100 µM
same,TGI,UACC-62 melanoma,35.4 µM
same,TGI,HCT-116 colon,35.9 µM
same,TGI,MDA-N,38.2 µM
same,TGI,NCI-H522 lung,> 100 µM
same,TGI,OVCAR-8 ovarian,55.7 µM
same,TGI,786-0 renal,42.6 µM
same,TGI,NCI-H226 lung,41 µM
same,TGI,HOP-62 NSCLC,39.6 µM
same,TGI,PC-3 prostate,35.9 µM
same,TGI,MDA-MB-435,60.6 µM
same,TGI,HOP-92 NSCLC,43.2 µM
same,TGI,CCRF-CEM leukemia,> 100 µM
same,TGI,RXF 393 renal,41.6 µM
same,TGI,DU-145 prostate,34.7 µM
same,TGI,U251 CNS,72.9 µM
same,TGI,SK-MEL-2 melanoma,41.6 µM
same,TGI,CAKI-1 renal,40.5 µM
same,TGI,IGROV1 ovarian,90 µM
same,TGI,SNB-19 CNS,34.8 µM
same,TGI,SF-295 CNS,37.8 µM
same,TGI,NCI-H23 lung,28.6 µM
same,TGI,OVCAR-3 ovarian,38.1 µM
same,TGI,MALME-3M melanoma,58.7 µM
same,TGI,LOX IMVI melanoma,33.7 µM
same,TGI,K-562 leukemia,49 µM
same,TGI,HT29 colon,25.7 µM
same,TGI,NCI/ADR-RES ovarian,66.4 µM
same,TGI,MCF7 breast,37.5 µM
same,TGI,SF-539 CNS,34.8 µM
O=C1NCN(c2ccccc2)C12CCN(CCCN1CCN(CCOC(c3ccccc3)c3ccccc3)CC1)CC2,TGI,KM12 colon,5.97 µM
same,TGI,OVCAR-5 ovarian,10.1 µM
same,TGI,SK-OV-3 ovarian,7.12 µM
same,TGI,RPMI-8226 leukemia,5.23 µM
same,TGI,SR leukemia,2.04 µM
same,TGI,MOLT-4 leukemia,6.4 µM
same,TGI,SK-MEL-5 melanoma,2.35 µM
same,TGI,SF-268 CNS,5.77 µM
same,TGI,SN12C renal,7.14 µM
same,TGI,HCT-15 colon,5.19 µM
same,TGI,TK-10 renal,7.15 µM
same,TGI,T-47D breast,7.18 µM
same,TGI,MDA-MB-231 breast,7.25 µM
same,TGI,A549 NSCLC,7.82 µM
same,TGI,UO-31 renal,4.39 µM
same,TGI,HS 578T breast,7.97 µM
same,TGI,SNB-75 CNS,5.46 µM
same,TGI,ACHN renal,5.88 µM
same,TGI,SW-620 colon,5.95 µM
same,TGI,M14 melanoma,3.86 µM
same,TGI,EKVX NSCLC,7.24 µM
same,TGI,UACC-257 melanoma,2.7 µM
same,TGI,HCC-2998 colon,1.02 µM
same,TGI,BT-549 breast,7.37 µM
same,TGI,HL-60(TB) leukemia,4.31 µM
same,TGI,COLO 205 colon,2.26 µM
same,TGI,OVCAR-4 ovarian,7.47 µM
same,TGI,SK-MEL-28 melanoma,2.42 µM
same,TGI,UACC-62 melanoma,7.69 µM
same,TGI,HCT-116 colon,5.67 µM
same,TGI,MDA-N,2.12 µM
same,TGI,NCI-H522 lung,4.66 µM
same,TGI,OVCAR-8 ovarian,6.51 µM
same,TGI,786-0 renal,2.31 µM
same,TGI,NCI-H226 lung,7.35 µM
same,TGI,HOP-62 NSCLC,6.6 µM
same,TGI,PC-3 prostate,7.69 µM
same,TGI,MDA-MB-435,2.46 µM
same,TGI,HOP-92 NSCLC,5.54 µM
same,TGI,CCRF-CEM leukemia,3.59 µM
same,TGI,RXF 393 renal,4.68 µM
same,TGI,DU-145 prostate,7 µM
same,TGI,U251 CNS,7.45 µM
same,TGI,SK-MEL-2 melanoma,6.75 µM
same,TGI,CAKI-1 renal,7.43 µM
same,TGI,IGROV1 ovarian,7.4 µM
same,TGI,NCI-H460 lung,7.45 µM
same,TGI,SNB-19 CNS,7.77 µM
same,TGI,SF-295 CNS,6.41 µM
same,TGI,NCI-H23 lung,7.46 µM
same,TGI,OVCAR-3 ovarian,6.93 µM
same,TGI,MALME-3M melanoma,5.54 µM
same,TGI,LOX IMVI melanoma,6.18 µM
same,TGI,K-562 leukemia,1.09 µM
same,TGI,HT29 colon,4.22 µM
same,TGI,A498 renal,6.55 µM
same,TGI,NCI/ADR-RES ovarian,8.91 µM
same,TGI,MCF7 breast,6.23 µM
same,TGI,SF-539 CNS,2.48 µM
